Our source for the GI50 and TGI values is PubChem BioAssay (NCI).

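48-hour exposure; five concentrations; linearly interpolated endpoints. GI50 = concentration required for 50% inhibition of growth. TGI: concentration producing complete growth inhibition.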

Some test systems named below: 786-0 renal; K-562 leukemia; PC-3 prostate; SF-268 CNS; SN12C renal; U251 CNS; UACC-257 melanoma.
Common to all, as to test: inhibition of tumour cell growth, NCI panel, 48 h

On to `O=C1Nc2ccc(F)cc2/C1=C/c1ccc[nH]1`, for which the GI50 in the assay on 786-0 renal, in the assay with K-562 leukemia, in the assay on PC-3 prostate, in the assay with SF-268 CNS, with SN12C renal and with U251 CNS was more than 25 µM in each case. The GI50 in the assay on UACC-257 melanoma was more than 25 µM. The TGI in the assay on 786-0 renal, in the assay on K-562 leukemia, in the assay with PC-3 prostate, in the assay with SF-268 CNS, in the assay on SN12C renal and with U251 CNS was more than 25 µM each time. The compound further showed a TGI in the assay with UACC-257 melanoma of more than 25 µM.

On to `CC(=O)N[C@H]1CSSC[C@@H](C(N)=O)NC(=O)[C@H](C(C)C)NC(=O)[C@H](C)NC(=O)[C@H](Cc2cnc[nH]2)NC1=O`, for which the GI50 in the assay on 786-0 renal, in the assay with K-562 leukemia, in the assay with PC-3 prostate, with SF-268 CNS, with SN12C renal and in the assay with U251 CNS was more than 100 µM in each case. Further, the GI50 in the assay with UACC-257 melanoma was more than 100 µM. In addition, the TGI in the assay with 786-0 renal, in the assay on K-562 leukemia, in the assay on PC-3 prostate, in the assay with SF-268 CNS, with SN12C renal and in the assay on U251 CNS was more than 100 µM each time. Moreover, in the assay with UACC-257 melanoma, the TGI is more than 100 µM.

As for `Cc1ccc2[nH]c(O)c(N=Nc3ccc(S(N)(=O)=O)cc3)c2c1`, the GI50 in the assay with 786-0 renal was 23.5 µM; in the assay on K-562 leukemia, 13.8 µM; in the assay on PC-3 prostate it was 11.9 µM; with SF-268 CNS it was 11.8 µM; in the assay on SN12C renal, 15.4 µM; in the assay with U251 CNS, 12.8 µM. For the same compound, in the assay with UACC-257 melanoma, the GI50 is more than 25 µM. Further, the TGI in the assay on 786-0 renal, in the assay with K-562 leukemia, with PC-3 prostate, with SF-268 CNS, with SN12C renal and with U251 CNS was more than 25 µM each time. Besides, the TGI in the assay with UACC-257 melanoma is more than 25 µM.

Consider `COc1cccc2c(=O)c3c(sc12)c(N1CCNCC1)nc1ccccc13`, for which the GI50 was 1.73 µM with 786-0 renal; 1.62 µM in the assay on PC-3 prostate; 1.75 µM in the assay with SF-268 CNS; 1.54 µM in the assay with SN12C renal; 2.09 µM in the assay on UACC-257 melanoma. For the same compound, the TGI in the assay on 786-0 renal came out at 3.39 µM; in the assay on PC-3 prostate it was 3.28 µM; with SF-268 CNS, 3.45 µM; in the assay with SN12C renal, 3.06 µM; in the assay with UACC-257 melanoma it was 4.45 µM.

`CCn1c(SCc2ccc(C)cc2)nnc1-c1nn(-c2ccc(Cl)cc2Cl)c(-c2ccc(Cl)cc2)c1C`: the GI50 with 786-0 renal is 2.69 µM; in the assay on K-562 leukemia, 0.836 µM; in the assay on PC-3 prostate, 0.49 µM; in the assay with SF-268 CNS, 3.06 µM; with SN12C renal, 2.31 µM; with U251 CNS, 0.925 µM. Further, the TGI stood at 12.2 µM in the assay on 786-0 renal; 10.4 µM in the assay with K-562 leukemia; 10.4 µM in the assay on PC-3 prostate; 14.9 µM in the assay with SF-268 CNS; 10.8 µM in the assay on SN12C renal; 11.8 µM with U251 CNS.

Consider `O=C1NC(=O)C(CC2CCCCCCCCCCC2=O)C(=O)N1` (stereo unspecified), for which the TGI in the assay on 786-0 renal, in the assay with PC-3 prostate, in the assay on SF-268 CNS, in the assay with SN12C renal, with U251 CNS and in the assay with UACC-257 melanoma was more than 100 µM throughout.

Consider `CN(C)CCN1C(=O)c2ccc3c4c(ccc(c24)C1=O)C(=O)N(CCN=C=S)C3=O`, for which the GI50 in the assay with 786-0 renal is 0.0436 µM; in the assay on PC-3 prostate, 0.0513 µM; in the assay with SF-268 CNS it was 0.0466 µM; with SN12C renal, 0.0364 µM; in the assay with U251 CNS it was 0.0347 µM; in the assay with UACC-257 melanoma, 0.0849 µM. Besides, the TGI with 786-0 renal turned out to be 0.416 µM; in the assay with PC-3 prostate it was 0.667 µM; with SF-268 CNS it was 0.29 µM; in the assay with SN12C renal, 0.177 µM; with U251 CNS, 0.153 µM; in the assay on UACC-257 melanoma, 0.216 µM.

For the compound `C1CCC([PH+](C2CCCCC2)C2CCCCC2[PH+](C2CCCCC2)C2CCCCC2)CC1.O=C(C1[CH-]CCCC1)C1CCCC[N-]1.[Au]` (stereo unspecified), the GI50 in the assay with 786-0 renal is 0.413 µM; with K-562 leukemia, 0.194 µM; in the assay with PC-3 prostate, 0.218 µM; in the assay with SF-268 CNS it was 0.343 µM; with SN12C renal, 0.262 µM; in the assay on UACC-257 melanoma it was 0.337 µM. The TGI is 1.85 µM in the assay on 786-0 renal; more than 100 µM in the assay with K-562 leukemia; 3.8 µM with PC-3 prostate; 1.91 µM in the assay on SF-268 CNS; 2.81 µM with SN12C renal; 3.36 µM in the assay on UACC-257 melanoma.

`CCCCCCCCCCCCCCCCCCOc1ccccc1CC(=O)OCC[N+]1(C)CCCC1`: the GI50 in the assay with 786-0 renal was 1.71 µM; in the assay with K-562 leukemia, 2.81 µM; with SF-268 CNS, 1.55 µM; in the assay on SN12C renal, 1.94 µM; with UACC-257 melanoma it was 2.82 µM. Besides, the TGI is 3.25 µM in the assay on 786-0 renal; 10.5 µM in the assay with K-562 leukemia; 3.34 µM with SF-268 CNS; 4.27 µM in the assay with SN12C renal; 9.12 µM in the assay with UACC-257 melanoma.

As to `Cn1c2ccccc2c(=O)c2ccc(Cl)cc21`, the TGI with 786-0 renal, in the assay on K-562 leukemia, with PC-3 prostate, with SF-268 CNS and in the assay on SN12C renal was more than 10 µM each time.

In the case of `ClCc1cccc(Cn2cnc3nc(Cl)nc(Cl)c32)c1`, the GI50 is 0.697 µM in the assay with 786-0 renal; 1.48 µM with K-562 leukemia; 0.644 µM with PC-3 prostate; 1.38 µM in the assay on SF-268 CNS; 1.1 µM in the assay with U251 CNS; 2.48 µM with UACC-257 melanoma. Moreover, the TGI in the assay with 786-0 renal is 1.76 µM; with K-562 leukemia, 2.95 µM; with PC-3 prostate it was 2.06 µM; in the assay with SF-268 CNS, 3.83 µM; with U251 CNS, 2.38 µM; in the assay on UACC-257 melanoma, 7.35 µM.

For `COc1cc(NC(C)CCCN)c2nccc(C)c2c1` (stereo unspecified), the TGI with 786-0 renal was 38 µM; in the assay on SF-268 CNS, more than 100 µM; in the assay with SN12C renal, more than 100 µM; in the assay with U251 CNS, 56.8 µM.

With `O=C1CC2c3ccccc3CCC2c2ccccc21` (stereo unspecified), the TGI is 79.8 µM in the assay with 786-0 renal; more than 100 µM with K-562 leukemia; 90.6 µM with PC-3 prostate; more than 100 µM with SF-268 CNS; more than 100 µM with U251 CNS; 73.2 µM in the assay with UACC-257 melanoma.
